This is an account of results in patent publication US20110071158A1, “NEW COMPOUNDS” (BOEHRINGER INGELHEIM INTERNATIONAL GMBH, priority 2009, published 2011).

pIC50: −log10 of the molar value.

T1 sequence (Q05397 whole entry): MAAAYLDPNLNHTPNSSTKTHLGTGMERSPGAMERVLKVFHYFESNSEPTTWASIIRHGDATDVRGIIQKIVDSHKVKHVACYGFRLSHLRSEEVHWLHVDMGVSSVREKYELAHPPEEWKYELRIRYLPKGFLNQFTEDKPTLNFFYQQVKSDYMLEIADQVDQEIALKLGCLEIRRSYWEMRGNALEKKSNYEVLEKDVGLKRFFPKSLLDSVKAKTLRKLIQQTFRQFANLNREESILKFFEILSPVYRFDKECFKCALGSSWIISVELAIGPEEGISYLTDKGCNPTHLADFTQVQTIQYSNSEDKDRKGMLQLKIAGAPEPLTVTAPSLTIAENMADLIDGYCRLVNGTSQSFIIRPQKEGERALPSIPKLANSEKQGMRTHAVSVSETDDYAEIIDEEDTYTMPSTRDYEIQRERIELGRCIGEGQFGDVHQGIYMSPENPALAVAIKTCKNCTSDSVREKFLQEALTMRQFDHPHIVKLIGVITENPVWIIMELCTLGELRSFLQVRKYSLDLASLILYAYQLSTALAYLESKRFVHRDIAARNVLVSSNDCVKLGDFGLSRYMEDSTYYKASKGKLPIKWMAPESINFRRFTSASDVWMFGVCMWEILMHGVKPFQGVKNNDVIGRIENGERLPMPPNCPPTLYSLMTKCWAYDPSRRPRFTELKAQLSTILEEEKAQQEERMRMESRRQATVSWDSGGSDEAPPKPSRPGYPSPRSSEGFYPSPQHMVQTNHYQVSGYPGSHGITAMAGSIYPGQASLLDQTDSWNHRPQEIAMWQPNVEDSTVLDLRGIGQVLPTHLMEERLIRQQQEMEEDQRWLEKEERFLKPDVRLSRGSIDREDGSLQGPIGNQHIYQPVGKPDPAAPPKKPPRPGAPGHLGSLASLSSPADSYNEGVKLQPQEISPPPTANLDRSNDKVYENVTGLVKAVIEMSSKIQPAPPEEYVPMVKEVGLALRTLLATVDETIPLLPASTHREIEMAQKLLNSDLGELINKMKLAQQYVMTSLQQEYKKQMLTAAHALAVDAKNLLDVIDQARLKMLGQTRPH

The assay concerns the target T1, PTK2 enzyme (Homo sapiens, UniProt Q05397).
T1 construct: purchased Invitrogen PV3832
Kind of assay: PTK2 enzyme test, Assay 1 (DELFIA, poly-Glu-Tyr substrate, antibody PT60). It is filed as biochemical. The settings on record: Assay 1 (values without *); 1 h pre-incubation, 2% DMSO. The procedure: This test uses active PTK2 enzyme (Invitrogen Code PV3832) and poly-Glu-Tyr (4:1, Sigma P-0275) as the kinase substrate. The kinase activity is detected through the phosphorylation of the substrate in a DELFIA™ assay. The phosphorylated substrate is detected with the europium-labelled phosphotyrosine antibody PT60 (Perkin Elmer, No.: AD00400).
In order to determine concentration-activity curves with PTK2-inhibitors the compounds are serially diluted in 10% DMSO/H2O and 10 μL of each dilution are placed in each well of a 96-well microtitre plate (clear plate with a U-shaped base, Greiner No. 650101) (the inhibitors are tested in duplicates) and mixed with 10 μL/well of PTK2 kinase (0.01 μg/well). PTK2 kinase has been correspondingly diluted beforehand with kinase dilution buffer (20 mM TRIS/HCl pH 7.5, 0.1 mM EDTA, 0.1 mM EGTA, 0.286 mM sodium orthovanadate, 10% glycerol with the addition of freshly prepared BSA (fraction V, 1 mg/mL) and DTT (1 mM)). The test compound and the PTK2 kinase are pre-incubated for 1 h at RT and shaken at 500 revolutions per min. The reaction is started by the addition of 10 μL/well poly (Glu,Tyr) substrate (25 μg/well poly (Glu, Tyr), 0.05 μg/well biotinylated poly (Glu,Tyr) dissolved in 250 mM TRIS/HCl pH 7.5, 9 mM DTT)—the final concentration of DMSO is 2%. Then 20 μL of ATP Mix (30 mM TRIS/HCl pH 7.5, 0.02% Brij, 0.2 mM sodium orthovanadate, 10 mM magnesium acetate, 0.1 mM EGTA, 1× phosphatase inhibitor cocktail 1 (Sigma, No.: P2850), 50 μM ATP (Sigma, No.: A3377; 15 mM stock solution)) are added. After 1 h of kinase reaction (the plates are shaken at 500 rpm), the reaction is stopped by the addition of 12 μL/well 100 mM EDTA, pH 8.0 and shaken for a further 5 min at RT (500 rpm). 55 μL of the reaction mixture are transferred into a streptavidin plate (Strepta Well High Bind (transparent, 96-well) made by Roche, No.: 11989685001) and incubated for 1 h at RT (shaking at 500 rpm). Then the microtitre plate is washed three times with 200 μL/well D-PBS (Invitrogen, No. 14190). 100 μL of a solution containing DELFIA Eu-N1 Anti-Phosphotyrosine PT60 antibody (Perkin Elmer, No.: AD0040, diluted 1:2000 in DELFIA test buffer (Perkin Elmer, No.: 1244-111)) is then added and the mixture is incubated for 1 h at RT (shaking at 500 rpm). Then the plate is washed three times with 200 μL/well DELFIA washing buffer (Perkin Elmer, No.: 1244-114), 200 μL/well strengthening solution (Perkin Elmer, No.: 1244-105) are added and the mixture is incubated for 10 min at RT (shaking at 300 rpm).
The time-delayed europium fluorescence is then measured in a microtitre plate reader (VICTOR^3, Perkin Elmer). […] Wells that contain test buffer instead of enzyme are used as a control of the background kinase activity.
The IC50 values are determined from analyses of the concentration activity by iterative calculation with the aid of a sigmoid curve analysis algorithm (FIFTY, based on Graph PAD Prism Version 3.03) with a variable Hill coefficient.
As usually defined, the pIC50 is the IC50 on a negative log10 scale, so that one unit is a factor of ten. A higher pIC50 goes with a small IC50. Regarding `CCC(=O)N[C@@H]1CCCC[C@H]1Nc1nc(Nc2ccc(C(=O)NC3CCN(C)CC3)cc2OC)ncc1C(F)(F)F` [Example I-1, 3-methoxy-N-(1-methyl-piperidin-4-yl)-4-[4-((1R,2R)-2-propionylamino-cyclohexylamino)-5-trifluoromethyl-pyrimidin-2-ylamino]-benzamide], the pIC50 is 9.00. `COc1cc(C(=O)NC(C)C)ccc1Nc1ncc(C(F)(F)F)c(N[C@@H]2CCCC[C@H]2NC(C)=O)n1` [Example I-2, 4-[4-(2-acetylamino-cyclohexylamino)-5-trifluoromethyl-pyrimidin-2-ylamino]-N-isopropyl-3-methoxy-benzamide] gave a negative-log IC50 (pIC50) of 8.52. For the compound `COCC(=O)N(C)[C@@H]1CCCC[C@H]1Nc1nc(Nc2ccc(C(=O)NC3CCN(C)CC3)cc2OC)ncc1C(F)(F)F` [Example I-3, 3-methoxy-4-(4-{(1R,2R)-2-[(2-methoxy-acetyl)-methyl-amino]-cyclohexylamino}-5-trifluoromethyl-pyrimidin-2-ylamino)-N-(1-methyl-piperidin-4-yl)-benzamide], the pIC50 was 8.00. Compared with the last compound, the pIC50 is 0.52 log units lower. Take `COc1ccccc1Nc1ncc(Cl)c(N[C@@H]2CCCC[C@H]2NC(C)=O)n1` [Example I-4, N-{(1R,2R)-2-[5-chloro-2-(2-methoxy-phenylamino)-pyrimidin-4-ylamino]-cyclohexyl}-acetamide]: the pIC50 is 8.05. Consider `COc1cc(C(=O)NC2CCN(C)CC2)ccc1Nc1ncc(C(F)(F)F)c(N[C@@H]2CCCC[C@@H]2NC(C)=O)n1` [Example I-5], for which the pIC50 was 7.72. `CNC(=O)c1ccc(Nc2ncc(C(F)(F)F)c(N[C@@H]3CCCC[C@H]3NC(C)=O)n2)c(OC)c1` [Example I-6] showed a pIC50 of 8.40.

The compound `CCNC(=O)c1ccc(Nc2ncc(C(F)(F)F)c(N[C@@H]3CCCC[C@H]3NC(C)=O)n2)c(OC)c1` [Example I-7] showed a pIC50 of 8.52. For `CCN1CCC(NC(=O)c2ccc(Nc3ncc(C(F)(F)F)c(N[C@@H]4CCCC[C@H]4NC(C)=O)n3)c(OC)c2)CC1` [Example I-8], the pIC50 is 8.70. The pIC50 values of the last two compounds are within 0.2 log units of each other.

Turning to `COc1cc(C(=O)NC2CCCN(C)C2)ccc1Nc1ncc(C(F)(F)F)c(N[C@@H]2CCCC[C@H]2NC(C)=O)n1` (stereo partly drawn) [Example I-10], the pIC50 is 8.52.

The compound `COc1cc(C(=O)NC2CCN(C)CC2)ccc1Nc1ncc(C(F)(F)F)c(N[C@@H]2CCCC[C@H]2NC(C)=O)n1` [Example I-11] gave a pIC50 of 8.70. The compound `COc1cc(C(=O)NC2CCN(C)CC2)ccc1Nc1ncc(C(F)(F)F)c(N[C@@H]2CCCC[C@H]2NC(=O)C(C)C)n1` [Example I-12] showed a pIC50 of 8.52. The pIC50 values of the last two compounds are within 0.2 log units of each other. The same measure for `COc1cc(C(=O)N(C)C)ccc1Nc1ncc(C(F)(F)F)c(N[C@@H]2CCCC[C@H]2NC(C)=O)n1` [Example I-13]: 7.74; for `COc1cc(C(=O)NC2CCN(C)CC2)ccc1Nc1ncc(C(F)(F)F)c(N[C@@H]2CCCC[C@H]2NC(=O)CC(C)C)n1` [Example I-14]: 7.49; for `CCNC(=O)N[C@@H]1CCCC[C@H]1Nc1nc(Nc2ccc(C(=O)NC3CCN(C)CC3)cc2OC)ncc1C(F)(F)F` [Example I-15]: 8.52. The value for `COc1cc(C(=O)NC2CCN(C)CC2)ccc1Nc1ncc(C(F)(F)F)c(N[C@@H]2CCCC[C@H]2NC(=O)C(C)(C)C)n1` [Example I-16] was 8.40; that for `COc1cc(C(=O)NC2CCN(C)CC2)ccc1Nc1ncc(C(F)(F)F)c(N[C@@H]2CCCC[C@H]2NC(=O)CN(C)C)n1` [Example I-17] was 7.82; that for `COc1cc(C(=O)NC2CCN(C)CC2)ccc1Nc1ncc(C(F)(F)F)c(N[C@@H]2CCCC[C@H]2NC(=O)NC(C)(C)C)n1` [Example I-18] was 7.34.

For the compound `CCCC(=O)N[C@@H]1CCCC[C@H]1Nc1nc(Nc2ccc(C(=O)NC3CCN(C)CC3)cc2OC)ncc1C(F)(F)F` [Example I-19], the pIC50 was 8.40. Compound `COc1cc(C(=O)NC2CCN(C)CC2)ccc1Nc1ncc(C(F)(F)F)c(N[C@@H]2CCCC[C@H]2NC(=O)C2CC2)n1` [Example I-20] gave a pIC50 of 9.00. Turning to `COCC(=O)N[C@@H]1CCCC[C@H]1Nc1nc(Nc2ccc(C(=O)NC3CCN(C)CC3)cc2OC)ncc1C(F)(F)F` [Example I-21], the pIC50 was 8.40. The value for `COc1cc(C(=O)NC2CCN(C)CC2)ccc1Nc1ncc(C(F)(F)F)c(N[C@@H]2CCCC[C@H]2NC(=O)C2CCCC2)n1` [Example I-22] was 7.82. The value for `COc1cc(C(=O)NC2CCN(C)CC2)ccc1Nc1ncc(C(F)(F)F)c(N[C@@H]2CCCC[C@H]2NC(=O)C2CCC2)n1` [Example I-23] was 8.52; that for `CCN(CC)C(=O)CN[C@@H]1CCCC[C@H]1Nc1nc(Nc2ccc(C(=O)NC3CCN(C)CC3)cc2OC)ncc1C(F)(F)F` [Example I-24] was 7.62; that for `CCN(CC)C(=O)CN[C@@H]1CCCC[C@H]1Nc1nc(Nc2cc(F)c(C(=O)NC3CCN(C)CC3)cc2OC)ncc1C(F)(F)F` [Example I-25] was 7.62. The same measure for `COc1cc(C(=O)NC2CCN(C)CC2)ccc1Nc1ncc(C(F)(F)F)c(N[C@@H]2CCCC[C@H]2NCC(=O)N(C)OC)n1` [Example I-26]: 7.64; for `COc1cc(C(=O)NC2CCN(C)CC2)c(F)cc1Nc1ncc(C(F)(F)F)c(N[C@@H]2CCCC[C@H]2NCC(=O)N(C)OC)n1` [Example I-27]: 8.22. `COc1cc(N2CCN(C)CC2)ccc1Nc1ncc(C(F)(F)F)c(N[C@@H]2CCCC[C@H]2NC(C)=O)n1` [Example I-29] gave a negative-log IC50 (pIC50) of 9.00. The value for `COc1cc(N2CCN(C)CC2)ccc1Nc1ncc(C(F)(F)F)c(N[C@@H]2CCCC[C@H]2NC(=O)C(C)C)n1` [Example I-30] was 8.30.

`COCC(=O)N[C@@H]1CCCC[C@H]1Nc1nc(Nc2ccc(N3CCN(C)CC3)cc2OC)ncc1C(F)(F)F` [Example I-31] had a pIC50 of 8.30.

In turn, `COc1cc(N2CCN(C)CC2)ccc1Nc1ncc(C(F)(F)F)c(N[C@@H]2CCCC[C@H]2NC(=O)CN(C)C)n1` [Example I-32] showed a pIC50 of 7.68. `COc1cc(N2CCN(C)CC2)ccc1Nc1ncc(C(F)(F)F)c(N[C@@H]2CCCC[C@H]2NC(=O)CC(C)C)n1` [Example I-33] showed a pIC50 of 7.15. The same measure for `COc1cc(C(=O)NC2CCN(C)CC2)ccc1Nc1ncc(C(F)(F)F)c(N[C@@H]2CCCC[C@H]2N(C)C)n1` [Example I-34]: 7.15; for `COc1cc(C(=O)NC2CCN(C)CC2)ccc1Nc1ncc(C(F)(F)F)c(N[C@H]2CCCC[C@@H]2NC(C)=O)n1` [Example I-35]: 7.09. The same measure for `COc1cc(C(=O)NC2CCOCC2)ccc1Nc1ncc(C(F)(F)F)c(N[C@H]2CCCC[C@@H]2NC(C)=O)n1` [Example I-36]: 6.40; for `COc1cc(C(=O)NC2CCCN(C)C2)ccc1Nc1ncc(C(F)(F)F)c(N[C@H]2CCCC[C@@H]2NC(C)=O)n1` (stereo partly drawn) [Example I-37]: 6.40.

Compound `CCN1CCC(NC(=O)c2ccc(Nc3ncc(C(F)(F)F)c(N[C@H]4CCCC[C@@H]4NC(C)=O)n3)c(OC)c2)CC1` [Example I-38] gave a pIC50 of 6.40.

In turn, `CNC(=O)c1ccc(Nc2ncc(C(F)(F)F)c(N[C@@H]3CCCC[C@H]3NC(C)=O)n2)c(OC)c1` [Example I-39] gave a pIC50 of 8.70. The same measure for `COc1cc(C(=O)NC2CCCN(C)C2)ccc1Nc1ncc(C(F)(F)F)c(N[C@@H]2CCCC[C@H]2NC(C)=O)n1` (stereo partly drawn) [Example I-41]: 8.70. In turn, `COc1cc(C(=O)NC2CCOCC2)ccc1Nc1ncc(Br)c(N[C@@H]2CCCC[C@H]2NC(C)=O)n1` [Example I-44] gave a pIC50 of 8.70. The value for `COc1cc(C(=O)NC2CCCN(C)C2)ccc1Nc1ncc(Br)c(N[C@@H]2CCCC[C@H]2NC(C)=O)n1` (stereo partly drawn) [Example I-45] was 9.00; that for `CNC(=O)c1ccc(Nc2ncc(Br)c(N[C@@H]3CCCC[C@H]3NC(C)=O)n2)c(OC)c1` [Example I-46] was 8.70. Consider `COc1cc(C(=O)NCCN(C)C)ccc1Nc1ncc(Br)c(N[C@@H]2CCCC[C@H]2NC(C)=O)n1` [Example I-47], for which the pIC50 is 9.02.
